The values that follow come from patent publication EP4038059B1, “SUBSTITUTED CARBAZOLE COMPOUNDS” (Bristol-Myers Squibb Company, priority 2019, dated 2021).

Format in all cases: cell-based
In one assay the target is T1, human TLR7 (Homo sapiens, UniProt Q9NYK1).
T1 construct: host or cells: HEK-Blue cells
T1 sequence (Q9NYK1 27-1049): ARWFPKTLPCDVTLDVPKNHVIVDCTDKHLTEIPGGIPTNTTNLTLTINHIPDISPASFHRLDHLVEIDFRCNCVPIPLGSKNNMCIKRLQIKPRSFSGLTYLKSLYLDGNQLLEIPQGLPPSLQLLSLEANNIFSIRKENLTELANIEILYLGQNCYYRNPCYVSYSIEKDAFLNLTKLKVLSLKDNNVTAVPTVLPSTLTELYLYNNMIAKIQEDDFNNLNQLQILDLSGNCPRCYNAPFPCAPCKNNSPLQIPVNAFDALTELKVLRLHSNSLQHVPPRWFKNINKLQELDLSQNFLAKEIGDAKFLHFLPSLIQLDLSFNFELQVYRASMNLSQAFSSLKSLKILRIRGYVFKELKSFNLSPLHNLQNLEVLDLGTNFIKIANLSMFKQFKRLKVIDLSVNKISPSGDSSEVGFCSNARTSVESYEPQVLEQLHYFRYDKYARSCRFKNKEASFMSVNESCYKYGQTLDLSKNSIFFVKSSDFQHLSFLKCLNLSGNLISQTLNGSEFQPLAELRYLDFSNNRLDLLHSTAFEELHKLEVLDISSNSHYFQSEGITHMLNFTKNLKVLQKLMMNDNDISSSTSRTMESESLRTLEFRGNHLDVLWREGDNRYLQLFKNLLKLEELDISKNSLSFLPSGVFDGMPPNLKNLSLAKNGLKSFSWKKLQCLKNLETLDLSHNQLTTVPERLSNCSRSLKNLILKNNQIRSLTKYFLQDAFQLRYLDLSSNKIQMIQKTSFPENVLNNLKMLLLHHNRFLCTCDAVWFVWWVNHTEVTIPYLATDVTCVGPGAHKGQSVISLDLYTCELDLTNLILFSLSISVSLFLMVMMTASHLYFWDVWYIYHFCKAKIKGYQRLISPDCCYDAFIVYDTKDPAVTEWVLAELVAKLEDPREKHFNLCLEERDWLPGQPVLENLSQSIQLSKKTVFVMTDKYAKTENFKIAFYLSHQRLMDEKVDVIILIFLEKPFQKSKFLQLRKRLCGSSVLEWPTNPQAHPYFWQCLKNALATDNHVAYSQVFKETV
As to the kind of experiment: TLR7 inhibition reporter assay (HEK-Blue SEAP). Conditions: HEK-Blue cells overexpressing human TLR7, stimulated with gardiquimod 7.5 µM, 22 h incubation. The procedure:
(§1) HEK-Blue™-cells (Invivogen) overexpressing human TLR7, TLR8 or TLR9 receptors were used for screening inhibitors of these receptors using an inducible SEAP (secreted embryonic alkaline phosphatase) reporter gene under the control of the IFN-β minimal promoter fused to five NF-κB and AP-1-binding sites. Briefly, cells are seeded into Greiner 384 well plates (15000 cells per well for TLR7, 20,000 for TLR8 and 25,000 for TLR9) and then treated with test compounds in DMSO to yield a final dose response concentration range of 0.05 nM - 50 µM. After a 30 minute compound pre-treatment at room temperature, the cells are then stimulated with a TLR7 ligand (gardiquimod at a final concentration of 7.5 µM), TLR8 ligand (R848 at a final concentration of 15.9 µM) or TLR9 ligand (ODN2006 at a final concentration of 5 nM) to activate NF-κB and AP-1 which induce the production of SEAP. After a 22 h incubation at 37°C, 5% CO2, SEAP levels are determined with the addition of HEK-Blue™ Detection reagent (Invivogen), a cell culture medium that allows for detection of SEAP, according to manufacturer's specifications. The percent inhibition is determined as the % reduction in the HEK-Blue signal present in wells treated with agonist plus DMSO alone compared to wells treated with a known inhibitor.
(In general: A reporter such as luciferase makes a cellular process visible.)

The next assay deals with T2, human TLR8 (Homo sapiens, UniProt Q9NR97).
T2 construct: host or cells: HEK-Blue cells
T2 sequence (Q9NR97 27-1041): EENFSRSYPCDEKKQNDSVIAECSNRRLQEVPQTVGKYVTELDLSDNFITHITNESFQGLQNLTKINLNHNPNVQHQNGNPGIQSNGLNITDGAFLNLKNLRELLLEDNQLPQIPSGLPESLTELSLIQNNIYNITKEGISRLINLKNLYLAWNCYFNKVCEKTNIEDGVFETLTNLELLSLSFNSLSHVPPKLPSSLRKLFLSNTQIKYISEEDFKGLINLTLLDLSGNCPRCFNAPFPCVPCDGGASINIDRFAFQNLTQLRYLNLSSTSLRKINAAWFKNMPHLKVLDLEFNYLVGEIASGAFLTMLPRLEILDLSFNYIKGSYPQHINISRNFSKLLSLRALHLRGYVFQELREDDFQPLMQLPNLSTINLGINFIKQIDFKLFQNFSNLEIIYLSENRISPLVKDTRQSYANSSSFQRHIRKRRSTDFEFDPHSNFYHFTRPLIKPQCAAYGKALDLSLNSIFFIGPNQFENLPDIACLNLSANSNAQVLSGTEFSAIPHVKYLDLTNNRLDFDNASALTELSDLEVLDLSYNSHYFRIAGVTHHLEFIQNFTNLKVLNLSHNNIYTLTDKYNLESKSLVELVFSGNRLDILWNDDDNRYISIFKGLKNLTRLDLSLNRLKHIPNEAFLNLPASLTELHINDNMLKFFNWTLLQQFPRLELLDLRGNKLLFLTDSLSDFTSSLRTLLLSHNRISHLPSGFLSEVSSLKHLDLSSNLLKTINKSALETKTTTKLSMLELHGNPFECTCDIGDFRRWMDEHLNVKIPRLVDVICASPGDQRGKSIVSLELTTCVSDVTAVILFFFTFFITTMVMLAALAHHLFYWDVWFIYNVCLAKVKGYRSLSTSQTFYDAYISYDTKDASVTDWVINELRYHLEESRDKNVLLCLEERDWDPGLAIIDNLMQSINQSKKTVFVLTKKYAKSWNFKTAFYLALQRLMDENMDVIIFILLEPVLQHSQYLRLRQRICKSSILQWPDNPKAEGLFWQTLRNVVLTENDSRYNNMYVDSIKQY
The experiment in a line: TLR8 inhibition reporter assay (HEK-Blue SEAP). The note with it: HEK-Blue cells overexpressing human TLR8, stimulated with R848 15.9 µM, 22 h incubation. On the procedure:
as §1

Another assay addresses T3, human TLR9 (Homo sapiens, UniProt Q9NR96).
T3 construct: host or cells: HEK-Blue cells
T3 sequence (Q9NR96 26-1032): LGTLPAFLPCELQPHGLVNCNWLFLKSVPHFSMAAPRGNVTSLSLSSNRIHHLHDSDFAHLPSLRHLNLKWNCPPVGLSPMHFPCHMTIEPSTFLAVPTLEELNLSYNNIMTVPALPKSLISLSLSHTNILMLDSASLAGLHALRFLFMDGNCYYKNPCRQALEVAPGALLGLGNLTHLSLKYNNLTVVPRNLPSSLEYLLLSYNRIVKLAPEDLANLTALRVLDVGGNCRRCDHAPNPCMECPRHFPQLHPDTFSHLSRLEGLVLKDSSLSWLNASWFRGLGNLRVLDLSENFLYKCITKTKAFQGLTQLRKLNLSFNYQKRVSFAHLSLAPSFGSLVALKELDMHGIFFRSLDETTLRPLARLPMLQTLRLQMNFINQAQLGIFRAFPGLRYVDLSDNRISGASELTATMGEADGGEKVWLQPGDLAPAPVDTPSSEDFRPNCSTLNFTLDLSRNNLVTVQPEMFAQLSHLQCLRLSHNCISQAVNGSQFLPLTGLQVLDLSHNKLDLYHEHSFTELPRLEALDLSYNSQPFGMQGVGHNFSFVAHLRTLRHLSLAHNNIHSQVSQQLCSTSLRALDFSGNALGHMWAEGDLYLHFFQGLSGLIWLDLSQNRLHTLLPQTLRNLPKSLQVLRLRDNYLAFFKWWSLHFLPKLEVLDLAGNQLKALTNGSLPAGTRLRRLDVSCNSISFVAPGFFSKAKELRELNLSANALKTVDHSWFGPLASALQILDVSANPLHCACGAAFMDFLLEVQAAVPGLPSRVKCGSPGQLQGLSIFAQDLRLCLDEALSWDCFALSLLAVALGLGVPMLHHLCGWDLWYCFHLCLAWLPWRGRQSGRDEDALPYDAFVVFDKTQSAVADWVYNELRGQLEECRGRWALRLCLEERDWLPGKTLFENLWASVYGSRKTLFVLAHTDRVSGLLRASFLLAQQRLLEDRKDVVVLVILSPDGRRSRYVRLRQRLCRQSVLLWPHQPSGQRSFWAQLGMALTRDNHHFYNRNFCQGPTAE
As to the kind of experiment: TLR9 inhibition reporter assay (HEK-Blue SEAP). Conditions: HEK-Blue cells overexpressing human TLR9, stimulated with ODN2006 5 nM, 22 h incubation. On the procedure:
as §1

Turning to `Cc1noc(C)c1-c1ccc2c(c1)[nH]c1ccc(C3CCNCC3)cc12` [Example 1, 3,5-dimethyl-4-(6-(piperidin-4-yl)-9H-carbazol-2-yl)isoxazole], the IC50 turned out to be 651 nM on human TLR7, 209 nM against human TLR8 and 1060 nM at human TLR9.
Turning to `Cc1cc(-c2ccc3c(c2)[nH]c2ccc(C4CCNCC4)cc23)cc(C)n1` [Example 2, 2-(2,6-Dimethylpyridin-4-yl)-6-(piperidin-4-yl)-9H-carbazole], the figures for the IC50 on human TLR7, at human TLR8 and against human TLR9 were 22 nM, 103 nM and 53 nM, respectively.
For the compound `Cc1cc(-c2ccc3c(c2)[nH]c2ccc(C4CCNCC4)cc23)cn2ncnc12` [Example 3, 2-(8-methyl-[1,2,4]triazolo[1,5-a]pyridin-6-yl)-6-(piperidin-4-yl)-9H-carbazole], the IC50 against human TLR7 is 109 nM; on human TLR8, 358 nM; against human TLR9, 668 nM.
In the case of `c1cncc(-c2ccc3c(c2)[nH]c2ccc(C4CCNCC4)cc23)c1` [Example 4, 6-(piperidin-4-yl)-2-(pyridin-3-yl)-9H-carbazole], the IC50 on human TLR7 came to 1470 nM; on human TLR8 it was 1800 nM; at human TLR9, 541 nM.
For `Cc1c(-c2ccc3c(c2)[nH]c2ccc(C4CCNCC4)cc23)cn(C)c(=O)c1C` [Example 5, 1,3,4-trimethyl-5-(6-(piperidin-4-yl)-9H-carbazol-2-yl)pyridin-2(1H)-one] the same measures were 16 nM, 29 nM and 182 nM.
Taken in the same sequence, the figures for `CN1CCC(c2ccc3c(c2)[nH]c2ccc(C4CCNCC4)cc23)CC1=O` (centres unmarked) [Example 6, 1-methyl-4-(6-(piperidin-4-yl)-9H-carbazol-2-yl)piperidin-2-one] were above 3130 nM, above 3130 nM and 1050 nM.
For `CC(=O)Nc1ccc2c(c1)[nH]c1ccc(C3CCNCC3)cc12` [Example 7, N-(6-(piperidin-4-yl)-9H-carbazol-2-yl)acetamide] the same measures were above 3130 nM, above 3130 nM and 1060 nM.
Regarding `Cn1cc(-c2ccc3c(c2)[nH]c2ccc(C4CCNCC4)cc23)cn1` [Example 8, 2-(1-methyl-1H-pyrazol-4-yl)-6-(piperidin-4-yl)-9H-carbazole], the values for the IC50 at human TLR7, at human TLR8 and against human TLR9 were 1380 nM, 861 nM and 648 nM, respectively.
As to `c1cc(-c2ccc3c(c2)[nH]c2ccc(C4CCNCC4)cc23)ccn1` [Example 9, 6-(Piperidin-4-yl)-2-(pyridin-4-yl)-9H-carbazole], the IC50 was determined as 383 nM against human TLR7, 61 nM at human TLR8 and 302 nM at human TLR9.
Turning to `Cc1c(-c2cc(C)c3c(c2)[nH]c2ccc(C4CCNCC4)cc23)cn(C)c(=O)c1C` [Example 10, 1,3,4-trimethyl-5-(4-methyl-6-(piperidin-4-yl)-9H-carbazol-2-yl)pyridin-2(1H)-one], the IC50 at human TLR7 came to 2.2 nM; on human TLR8, 2.4 nM; at human TLR9, 350 nM.
For `Cc1cc(-c2cc(C)c3c(c2)[nH]c2ccc(C4CCNCC4)cc23)cc(C)n1` [Example 11] the same measures were 2.4 nM, 21 nM and 40 nM.
Taken in the same sequence, the figures for `COc1cc(-c2cc(C)c3c(c2)[nH]c2ccc(C4CCNCC4)cc23)cn2ncnc12` [Example 12] were 1.4 nM, 6.8 nM and 153 nM.
Taken in the same sequence, the figures for `Cc1cc(-c2cc(C)c3ncnn3c2)cc2[nH]c3ccc(C4CCNCC4)cc3c12` [Example 13] were 0.7 nM, 6.8 nM and 349 nM.
Turning to `Cc1cc2c(cc1-c1cc(C)c3ncnn3c1)[nH]c1ccc(C3CCNCC3)cc12` [Example 14, 3-methyl-2-(8-methyl-[1,2,4]triazolo[1,5-a]pyridin-6-yl)-6-(piperidin-4-yl)-9H-carbazole], the IC50 was determined as 1.2 nM against human TLR7, 1.4 nM against human TLR8 and 318 nM at human TLR9.
As to `COc1cc(-c2cc3[nH]c4ccc(C5CN(C6CCOCC6)C5)cc4c3c(C)c2C)cn2ncnc12` [Example 37], the IC50 at human TLR8 came to 1.3 nM; on human TLR9 it was 1050 nM.

One may read the IC50 as the midpoint of a concentration-inhibition curve.
